Results as given in paper PMC8391988 (2021).

How the values were obtained:
[1] = test system: poly rG–poly rC (RNA, polymer) G/C; assay: fluorimetric titration, Scatchard; conditions: Na+ (sodium cacodylate, I = 0.05 M); pH 7.0; apparent; per phosphate; n fixed at 0.2; dye 1.3–1.5 × 10^-7 M; per base
[2] = test system: poly dGdC–poly dGdC (DNA, polymer) GC; assay: fluorimetric titration, Scatchard; conditions: Na+ (sodium cacodylate, I = 0.05 M); pH 7.0; apparent; per phosphate; n fixed at 0.2; dye 1.3–1.5 × 10^-7 M; per base
[3] = test system: poly dG–poly dC (DNA, polymer) G/C; assay: fluorimetric titration, Scatchard; conditions: Na+ (sodium cacodylate, I = 0.05 M); pH 7.0; apparent; per phosphate; n fixed at 0.2; dye 1.3–1.5 × 10^-7 M; per base
[4] = test system: poly dA–poly dT (DNA, polymer) A/T; assay: fluorimetric titration, Scatchard; conditions: Na+ (sodium cacodylate, I = 0.05 M); pH 7.0; apparent; per phosphate; n fixed at 0.2; dye 1.3–1.5 × 10^-7 M; per base
[5] = test system: poly dAdT–poly dAdT (DNA, polymer) AT; assay: fluorimetric titration, Scatchard; conditions: Na+ (sodium cacodylate, I = 0.05 M); pH 7.0; apparent; per phosphate; n fixed at 0.2; dye 1.3–1.5 × 10^-7 M; per base
[6] = test system: poly dAdT–poly dAdT (DNA, polymer) AT; assay: UV thermal melting at 260 nm; conditions: Na+ (sodium cacodylate, I = 0.05 M); pH 7.0; r = [compound]/[phosphate] = 0.2; polynucleotide 1–2 × 10^-5 M; per base
[7] = test system: poly rA–poly rU (RNA, polymer) A/U; assay: fluorimetric titration, Scatchard; conditions: Na+ (sodium cacodylate, I = 0.05 M); pH 7.0; apparent; per phosphate; n fixed at 0.2; dye 1.3–1.5 × 10^-7 M; per base
[8] = test system: poly rA–poly rU (RNA, polymer) A/U; assay: UV thermal melting at 260 nm; conditions: Na+ (sodium cacodylate, I = 0.05 M), pH 7.0, polynucleotide 1–2 × 10^-5 M, per base
[9] = r = [compound]/[phosphate] = 0.2

log Ks [1]	log Ks [2]	log Ks [3]	log Ks [4]	log Ks [5]	ΔTm [6] [°C]	log Ks [7]	ΔTm [8, 9] [°C]	ΔTm ([8]; r = 0.1, destabilised (−19.1) at r = 0.2) [°C]	Structure (SMILES)
5.23	6.98	6.79	6.41	6.65	28.6	6.11	24.0	–	CC(O)C[n+]1c(C=C2C=CN(CCC[N+](C)(C)CCC[N+](C)(C)C)c3ccccc32)sc2ccccc21 (stereo not drawn)
4.79	7.20	6.63	5.89	6.98	10.7	6.14	0	–	CC(O)C[n+]1c(C=C2C=CN(CCC[N+]3(C)CCC(CCCC4CC[N+](C)(CCCN5C=CC(=Cc6sc7ccccc7[n+]6CC(C)O)c6ccccc65)CC4)CC3)c3ccccc32)sc2ccccc21 (stereo not drawn)
4.76	7.04	6.78	6.23	6.68	–	6.22	–	10.6	CC(O)C[n+]1c(C=C2C=CN(CCC[n+]3ccc(CCCc4cc[n+](CCCN5C=CC(=Cc6sc7ccccc7[n+]6CC(C)O)c6ccccc65)cc4)cc3)c3ccccc32)sc2ccccc21 (stereo not drawn)

The next lines start with the compound.

Structure (SMILES)	log Ks [1]	log Ks [2]	log Ks [3]	log Ks [4]	log Ks [5]	ΔTm [6] [°C]	log Ks [7]	ΔTm [8, 9] [°C]	ΔTm ([8]; r = 0.1, destabilised (−19.1) at r = 0.2) [°C]
CC(O)C[n+]1c(C=C2C=CN(CCC[N+](C)(C)CCC[N+](C)(C)CCCN3C=CC(=Cc4sc5ccccc5[n+]4CC(C)O)c4ccccc43)c3ccccc32)sc2ccccc21 (stereo not drawn)	4.94	7.64	7.55	6.19	7.23	8.9	7.15	3.0	–
CC(O)C[n+]1c(C=C2C=CN(CCC[N+]3(C)CCC(CCCC4CC[N+](C)(CCCN5C=CC(=Cc6sc7ccccc7[n+]6CC(C)O)c6ccc(Cl)cc65)CC4)CC3)c3cc(Cl)ccc32)sc2ccccc21 (stereo not drawn)	4.95	7.40	7.41	5.91	6.05	7.1	6.14	0.6	–
